US10259810B2, “N-sulfonylated pyrazolo[3,4-b]pyridin-6-carboxamides and method of use” (AbbVie S.à.r.l., priority 2015, dated 2019)

Assays:
Type in all cases: cell-based
[1] = molecular target: T1, ΔF508-CFTR (Homo sapiens, UniProt P13569, DEL508-508); assay: CFTR cell surface levels using HRP-tagged ΔF508-CFTR expressing CFBE cells, in the presence of a co-corrector; conditions: HRP-tagged ΔF508-CFTR CFBE cells, in the presence of 3 μM co-corrector; for EC50: read-out: EC50
T1 construct: host or cells: CFBE41o-, doxycycline-inducible
T1 sequence (P13569 with tags, fused parts or gaps DEL508-508): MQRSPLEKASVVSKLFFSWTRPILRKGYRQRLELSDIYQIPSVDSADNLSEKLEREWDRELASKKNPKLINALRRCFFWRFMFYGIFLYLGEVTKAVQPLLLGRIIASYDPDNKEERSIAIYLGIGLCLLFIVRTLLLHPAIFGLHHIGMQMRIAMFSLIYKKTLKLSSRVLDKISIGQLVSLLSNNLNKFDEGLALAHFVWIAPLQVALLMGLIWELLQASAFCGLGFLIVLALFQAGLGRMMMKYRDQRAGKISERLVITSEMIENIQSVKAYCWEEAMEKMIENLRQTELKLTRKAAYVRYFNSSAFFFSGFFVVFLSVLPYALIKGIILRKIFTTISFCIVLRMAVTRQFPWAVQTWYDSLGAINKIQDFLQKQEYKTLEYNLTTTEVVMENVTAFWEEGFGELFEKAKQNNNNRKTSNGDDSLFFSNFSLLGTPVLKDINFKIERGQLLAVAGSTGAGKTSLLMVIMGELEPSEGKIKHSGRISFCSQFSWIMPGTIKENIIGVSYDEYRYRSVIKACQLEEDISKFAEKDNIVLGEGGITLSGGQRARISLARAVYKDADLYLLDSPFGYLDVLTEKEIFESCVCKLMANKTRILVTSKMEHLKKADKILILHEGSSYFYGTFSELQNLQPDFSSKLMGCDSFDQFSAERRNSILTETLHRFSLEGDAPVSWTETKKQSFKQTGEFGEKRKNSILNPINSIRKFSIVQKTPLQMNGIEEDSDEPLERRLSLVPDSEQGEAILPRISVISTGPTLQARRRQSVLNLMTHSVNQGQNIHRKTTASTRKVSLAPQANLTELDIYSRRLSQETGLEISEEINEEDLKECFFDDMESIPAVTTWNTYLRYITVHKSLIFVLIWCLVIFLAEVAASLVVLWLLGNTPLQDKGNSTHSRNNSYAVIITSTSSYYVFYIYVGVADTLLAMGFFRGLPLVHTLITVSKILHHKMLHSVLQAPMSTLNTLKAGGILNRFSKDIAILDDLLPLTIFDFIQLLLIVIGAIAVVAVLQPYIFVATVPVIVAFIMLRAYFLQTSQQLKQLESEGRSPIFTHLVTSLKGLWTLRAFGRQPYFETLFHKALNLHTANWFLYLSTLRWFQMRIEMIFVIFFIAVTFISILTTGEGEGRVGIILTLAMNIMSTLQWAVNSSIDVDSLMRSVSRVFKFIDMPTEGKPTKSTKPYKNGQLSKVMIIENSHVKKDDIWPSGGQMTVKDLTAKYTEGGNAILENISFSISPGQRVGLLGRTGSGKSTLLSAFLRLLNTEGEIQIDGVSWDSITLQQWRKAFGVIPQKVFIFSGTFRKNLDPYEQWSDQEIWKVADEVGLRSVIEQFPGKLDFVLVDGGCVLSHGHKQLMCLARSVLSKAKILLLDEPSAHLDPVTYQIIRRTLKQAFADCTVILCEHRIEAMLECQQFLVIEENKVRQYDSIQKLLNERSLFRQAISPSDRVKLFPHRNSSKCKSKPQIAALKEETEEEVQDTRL
Method in brief: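 Chemiluminescent read-out of surface HRP (15 min, dark) after PBS washes. Activity is normalized as 100×(sample−DMSO)/(3 μM co-corrector alone−DMSO).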

[2] = molecular target: T2, CFTR ΔF508 (Homo sapiens, UniProt P13569, DEL508-508); assay: Chronic TECC assay, primary bronchial epithelial cells of CF patients homozygous for CFTR ΔF508 (corrector, co-corrector and potentiator); conditions: chronic TECC, AUC = full area under the curve upon forskolin stimulation; for % Activity at 1 μM (AUC**): test compound at 1 μM; for % Activity at 3 μM (AUC**): test compound at 3 μM
T2 construct: bronchial epithelial cells isolated from CF patients homozygous for the CFTR ΔF508 mutation; McGill University; Asterand; University of North Carolina hAEC-CF; host or cells: primary human bronchial epithelial cells from CF patients homozygous for ΔF508, differentiated at air-liquid interface
T2 sequence (P13569 with tags, fused parts or gaps DEL508-508): as above
Method in brief: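 Primary bronchial epithelial cells from ΔF508-homozygous CF patients on collagen IV-coated Transwells were chronically treated with test compound plus corrector and potentiator, which were re-added before recording. Ieq was derived from PD and Rt in NaCl-Ringer, pH 7.4, at 37° C, with apical amiloride and bilateral forskolin, recorded every 2 min over 20 min. Ieq increase was normalized to controls, and EC50 was taken from per-well concentrations.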

[3] = molecular target: T1, ΔF508-CFTR; assay: CFTR cell surface levels using HRP-tagged ΔF508-CFTR expressing CFBE cells, intrinsic corrector capacity; set-up: % Activation: concentration or dose not given beside the values; conditions: HRP-tagged ΔF508-CFTR expressing CFBE41o- cells, compound alone (intrinsic corrector capacity), 20 hours at 33° C.; for EC50: read-out: EC50
Method in brief: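 Surface ΔF508-CFTR was measured as HRP chemiluminescence from an extracellular-loop-4 tag, expressed as percent activity between DMSO and a […] corrector control.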

SMILES: O=C(NS(=O)(=O)NC1CCOCC1)c1cc(N2CCC(N3CCOCC3)CC2)c2c(C3CCC3)nn(-c3ccc(F)cc3)c2n1 [Compound 578, 3-cyclobutyl-1-(4-fluorophenyl)-4-[4-(morpholin-4-yl)piperidin-1-yl]-N-[(oxan-4-yl)sulfamoyl]-1H-pyrazolo[3,4-b]pyridine-6-carboxamide]
- % Activation [1]: 462.3%
- EC50 [1]: 0.108 µM
- % Activity at 1 μM (AUC**) [2]: 936.6667%
- % Activation [3]: 309.25%
- EC50 [3]: 0.152 µM

SMILES: CN(C)S(=O)(=O)NC(=O)c1cc(N2CCC(N3CCN(C4CC4)CC3)CC2)c2c(C3CCC3)nn(-c3ccc(F)cc3)c2n1 [Compound 583, 3-cyclobutyl-4-[4-(4-cyclopropylpiperazin-1-yl)piperidin-1-yl]-N-(dimethylsulfamoyl)-1-(4-fluorophenyl)-1H-pyrazolo[3,4-b]pyridine-6-carboxamide]
- % Activation [1]: 480.15%
- EC50 [1]: 0.0476 µM
- EC50 ([2]; read-out: EC50 (nM) (AUC**)): 51.3 nM
- % Activity at 1 μM (AUC**) [2]: 613.3333%
- % Activation [3]: 269.7%
- EC50 [3]: 0.178 µM

SMILES: CN(C)S(=O)(=O)NC(=O)c1cc(N2CCC(CN3CCCC3)CC2)c2c(C3CCC3)nn(-c3ccc(F)cc3)c2n1 [Compound 589, 3-cyclobutyl-N-(dimethylsulfamoyl)-1-(4-fluorophenyl)-4-{4-[(pyrrolidin-1-yl)methyl]piperidin-1-yl}-1H-pyrazolo[3,4-b]pyridine-6-carboxamide]
- % Activation [1]: 422.95%
- EC50 [1]: 0.148 µM
- % Activity at 1 μM (AUC**) [2]: 236.6667%
- % Activation [3]: 193.6%
- EC50 [3]: 0.2 µM

SMILES: CCOC(=O)N1CCN(C2CCN(c3cc(C(=O)NS(=O)(=O)N(C)C)nc4c3c(C3CCC3)nn4-c3ccc(F)cc3)CC2)CC1 [Compound 590, ethyl 4-(1-{3-cyclobutyl-6-[(dimethylsulfamoyl)carbamoyl]-1-(4-fluorophenyl)-1H-pyrazolo[3,4-b]pyridin-4-yl}piperidin-4-yl)piperazine-1-carboxylate]
- % Activation [1]: 487.9%
- EC50 [1]: 0.0314 µM
- % Activity at 3 μM (AUC**) [2]: 220.4586%
- % Activation [3]: 290.3%
- EC50 [3]: 0.0867 µM

SMILES: CN(C)S(=O)(=O)NC(=O)c1cc(C2CCN(C3CCC(F)(F)CC3)CC2)c2c(C3CCC3)nn(-c3ccc(F)cc3)c2n1 [Compound 594, 3-cyclobutyl-4-[1-(4,4-difluorocyclohexyl)piperidin-4-yl]-N-(dimethylsulfamoyl)-1-(4-fluorophenyl)-1H-pyrazolo[3,4-b]pyridine-6-carboxamide]
- % Activation [1]: 308.05%
- EC50 [1]: 0.181 µM
- % Activity at 3 μM (AUC**) [2]: 320%
- % Activation [3]: 135.7%
- EC50 [3]: 0.519 µM

SMILES: CC(C)Oc1nn(C2CCCCC2)c2nc(C(=O)NS(C)(=O)=O)cc(-c3ccc(CN4CCN(C5CC5)CC4)cc3)c12 [Compound 597, 1-cyclohexyl-4-{4-[(4-cyclopropylpiperazin-1-yl)methyl]phenyl}-N-(methanesulfonyl)-3-[(propan-2-yl)oxy]-1H-pyrazolo[3,4-b]pyridine-6-carboxamide]
- % Activation [1]: 433.93%
- EC50 [1]: 0.111 µM
- % Activity at 1 μM (AUC**) [2]: 263.3333%
- % Activation [3]: 214.3%
- EC50 [3]: 0.13 µM

SMILES: CS(=O)(=O)NC(=O)c1cc(C2CCN(C3CCOCC3)CC2)c2c(C3CCC3)nn(-c3ccc(F)cc3)c2n1 [Compound 599, 3-cyclobutyl-1-(4-fluorophenyl)-N-(methanesulfonyl)-4-[1-(oxan-4-yl)piperidin-4-yl]-1H-pyrazolo[3,4-b]pyridine-6-carboxamide]
- % Activation [1]: 285.2%
- EC50 [1]: 0.27 µM
- % Activity at 1 μM (AUC**) [2]: 116.6667%
- % Activation [3]: 88.94%
- EC50 [3]: 0.331 µM

SMILES: CN(C)S(=O)(=O)NC(=O)c1cc(N2CCC(N3CCC(O)CC3)CC2)c2c(C3CCC3)nn(-c3ccc(F)cc3)c2n1 [Compound 605, 3-cyclobutyl-N-(dimethylsulfamoyl)-1-(4-fluorophenyl)-4-(4-hydroxy[1,4'-bipiperidin]-1'-yl)-1H-pyrazolo[3,4-b]pyridine-6-carboxamide]
- % Activation [1]: 395.8%
- EC50 [1]: 0.723 µM
- % Activity at 1 μM (AUC**) [2]: 726.6667%
- % Activation [3]: 207.5%
- EC50 [3]: 0.317 µM

SMILES: COCC1CCN(c2cc(C(=O)NS(=O)(=O)N3CCC(N4CCOCC4)C3)nc3c2c(C2CCC2)nn3-c2ccc(F)cc2)CC1 (centres unmarked) [Compound 608, 3-cyclobutyl-1-(4-fluorophenyl)-4-[4-(methoxymethyl)piperidin-1-yl]-N-[3-(morpholin-4-yl)pyrrolidine-1-sulfonyl]-1H-pyrazolo[3,4-b]pyridine-6-carboxamide]
- % Activation [1]: 365.7%
- EC50 [1]: 0.0548 µM
- % Activity at 3 μM (AUC**) [2]: 442.1916%
- % Activation [3]: 194.67%
- EC50 [3]: 0.104 µM

SMILES: COCC1CCN(c2cc(C(=O)NS(=O)(=O)N3CCN(C4CC4)CC3)nc3c2c(C2CCC2)nn3-c2ccc(F)cc2)CC1 [Compound 609, 3-cyclobutyl-N-(4-cyclopropylpiperazine-1-sulfonyl)-1-(4-fluorophenyl)-4-[4-(methoxymethyl)piperidin-1-yl]-1H-pyrazolo[3,4-b]pyridine-6-carboxamide]
- % Activation [1]: 414.2%
- EC50 [1]: 0.109 µM
- % Activity at 3 μM (AUC**) [2]: 306.6667%
- % Activation [3]: 202.53%
- EC50 [3]: 0.249 µM

SMILES: CC(C)N1CCC(c2cc(C(=O)NS(C)(=O)=O)nc3c2c(C2CCC2)nn3-c2ccc(F)cc2)CC1 [Compound 611, 3-cyclobutyl-1-(4-fluorophenyl)-N-(methanesulfonyl)-4-[1-(propan-2-yl)piperidin-4-yl]-1H-pyrazolo[3,4-b]pyridine-6-carboxamide]
- % Activation [1]: 236.7%
- EC50 [1]: 2.62 µM
- % Activity at 3 μM (AUC**) [2]: 176.7495%
- % Activation [3]: 77.39%
- EC50 [3]: 3.33 µM

SMILES: CN(C)S(=O)(=O)NC(=O)c1cc(N2CCC3(CC2)CCN(C2COC2)CC3)c2c(C3CCC3)nn(-c3ccc(F)cc3)c2n1 [Compound 614, 3-cyclobutyl-N-(dimethylsulfamoyl)-1-(4-fluorophenyl)-4-[9-(oxetan-3-yl)-3,9-diazaspiro[5.5]undecan-3-yl]-1H-pyrazolo[3,4-b]pyridine-6-carboxamide]
- % Activation [1]: 381.35%
- EC50 [1]: 0.171 µM
- % Activity at 3 μM (AUC**) [2]: 407.7118%
- % Activation [3]: 172%
- EC50 [3]: 0.211 µM

SMILES: CC(C)Oc1nccc(-n2nc(C3CCC3)c3c(N4CCC(N5CCOCC5)CC4)cc(C(=O)NS(=O)(=O)N(C)C)nc32)n1 [Compound 621, 3-cyclobutyl-N-(dimethylsulfamoyl)-4-[4-(morpholin-4-yl)piperidin-1-yl]-1-{2-[(propan-2-yl)oxy]pyrimidin-4-yl}-1H-pyrazolo[3,4-b]pyridine-6-carboxamide]
- % Activation [1]: 348.55%
- EC50 [1]: 0.077 µM
- % Activity at 3 μM (AUC**) [2]: 256.6667%
- % Activation [3]: 160.45%
- EC50 [3]: 0.173 µM

SMILES: CN(C)S(=O)(=O)NC(=O)c1cc(N2CCC(N3CCOCC3)CC2)c2c(C3CCC3)nn(-c3ccc4c(c3)OC(F)(F)O4)c2n1 [Compound 623, 3-cyclobutyl-1-(2,2-difluoro-2H-1,3-benzodioxol-5-yl)-N-(dimethylsulfamoyl)-4-[4-(morpholin-4-yl)piperidin-1-yl]-1H-pyrazolo[3,4-b]pyridine-6-carboxamide]
- % Activation [1]: 424.77%
- EC50 [1]: 0.0556 µM
- % Activity at 3 μM (AUC**) [2]: 433.3333%
- % Activation [3]: 238.53%
- EC50 [3]: 0.113 µM

SMILES: CN1CCN(S(=O)(=O)NC(=O)c2cc(N3CCC(N4CCOCC4)CC3)c3c(C4CCC4)nn(-c4ccc(F)cc4)c3n2)CC1 [Compound 624, 3-cyclobutyl-1-(4-fluorophenyl)-N-(4-methylpiperazine-1-sulfonyl)-4-[4-(morpholin-4-yl)piperidin-1-yl]-1H-pyrazolo[3,4-b]pyridine-6-carboxamide]
- % Activation [1]: 274.15%
- EC50 [1]: 0.549 µM
- % Activity at 3 μM (AUC**) [2]: 310%
- % Activation [3]: 100.59%
- EC50 [3]: 1.2 µM

SMILES: CC(C)N1CCC2CN(c3cc(C(=O)NS(=O)(=O)N(C)C)nc4c3c(C3CCC3)nn4-c3ccc(F)cc3)CCC21 (centres unmarked) [Compound 625, 3-cyclobutyl-N-(dimethylsulfamoyl)-1-(4-fluorophenyl)-4-[1-(propan-2-yl)octahydro-5H-pyrrolo[3,2-c]pyridin-5-yl]-1H-pyrazolo[3,4-b]pyridine-6-carboxamide]
- % Activation [1]: 353.87%
- EC50 [1]: 0.126 µM
- % Activity at 1 μM (AUC**) [2]: 403.3333%
- % Activation [3]: 182.2%
- EC50 [3]: 0.223 µM

SMILES: CN(C)S(=O)(=O)NC(=O)c1cc(N2CCC3C(CCN3C3CCC3)C2)c2c(C3CCC3)nn(-c3ccc(F)cc3)c2n1 (centres unmarked) [Compound 626, 3-cyclobutyl-4-(1-cyclobutyloctahydro-5H-pyrrolo[3,2-c]pyridin-5-yl)-N-(dimethylsulfamoyl)-1-(4-fluorophenyl)-1H-pyrazolo[3,4-b]pyridine-6-carboxamide]
- % Activation [1]: 418.4%
- EC50 [1]: 0.111 µM
- % Activity at 3 μM (AUC**) [2]: 387.4854%
- % Activation [3]: 206.6%
- EC50 [3]: 0.151 µM
